In patent US6914045B2, “Glycopeptide antibiotics” (Wyeth Holdings Corporation, priority 2001, dated 2005):
In brackets after ≈: the same amount, converted by molar mass.

Experiments:
Test in all cases: in vitro antibacterial evaluation, MIC by broth dilution
Assay type in all cases: cell-based
Enterococcus sp. = details: broth dilution, 18 hours at 35° C.; for MIC Enterococcus faecalis (ATCC 29212): strain ATCC 29212; for MIC Enterococcus faecalis (GC 2242): strain GC 2242; for MIC Enterococcus faecium (GC 2243): strain GC 2243; for MIC Enterococcus faecalis (GC 2691): strain GC 2691; for MIC Enterococcus faecalis (GC 3059): strain GC 3059; for MIC Enterococcus faecalis (GC 4552): strain GC 4552; for MIC Enterococcus faecalis (GC 4553): strain GC 4553; for MIC Enterococcus faecalis (GC 4554): strain GC 4554; for MIC Enterococcus faecium (GC 4556): strain GC 4556; for MIC Enterococcus faecium (GC 4557): strain GC 4557; for MIC Enterococcus avium (GC 4558): strain GC 4558; for MIC Enterococcus faecalis (GC 6189): strain GC 6189
Protocol: (§1) Methods for in vitro Antibacterial Evaluation (Table 1)
(§2) The minimum inhibitory concentration (MIC), the lowest concentration of the antibiotic which inhibits growth of the test organism, is determined by the broth dilution method using Muller-Hinton II […] (Baltimore Biological Laboratories) following the recommendations of the National Committee for Clinical Laboratory Standards [Methods for dilution antimicrobial susceptibility tests for bacteria that grow aerobically, approved standard M7-A2, National Committee for Clinical Laboratory Standards, Villanova, Pa.].
(§3) An inoculum level of 5×10^5 CFU/mL, and a range of antibiotic concentrations (64-0.06 μg/mL) is used. […] The test organisms include a spectrum of Gram-positive bacteria comprised of Staphylococcus sp., Streptococcus sp. and Enterococcus sp. These organisms include recent clinical isolates that are resistant to methicillin, penicillin and/or vancomycin.

Staphylococcus sp. = details: broth dilution, 18 hours at 35° C.; for MIC Staphylococcus aureus (ATCC 29213): strain ATCC 29213; for MIC Staphylococcus aureus (GC 1131): strain GC 1131; for MIC Staphylococcus aureus (GC 3051): strain GC 3051; for MIC Staphylococcus aureus (GC 3053): strain GC 3053; for MIC Staphylococcus aureus (GC 4541): strain GC 4541; for MIC Staphylococcus aureus (GC 4542): strain GC 4542; for MIC Staphylococcus aureus-SMITH (GC 4543): strain GC 4543; for MIC Staphylococcus aureus (GC 4544): strain GC 4544; for MIC Staphylococcus aureus (GC 4545): strain GC 4545; for MIC Staphylococcus haemolyticus (GC 4546): strain GC 4546; for MIC Coagulase Negative Staphylococcus (GC 4547): strain GC 4547; for MIC Coagulase Negative Staphylococcus (GC 4548): strain GC 4548; for MIC Coagulase Negative Staphylococcus (GC 4549): strain GC 4549; for MIC Coagulase Negative Staphylococcus (GC 4551): strain GC 4551; for MIC Coagulase Negative Staphylococcus (GC 6257): strain GC 6257
Protocol: as §1, §2, §3

Streptococcus sp. = details: broth dilution, 18 hours at 35° C.; for MIC Streptococcus pneumoniae (ATCC 6301): strain ATCC 6301; for MIC Streptococcus pneumoniae (GC 1894): strain GC 1894; for MIC Streptococcus pyogenes (GC 4563): strain GC 4563; for MIC Streptococcus agalactiae (GC 4564): strain GC 4564; for MIC Streptococcus pneumoniae (GC 4565): strain GC 4565
Protocol: as §1, §2, §3

Escherichia coli = details: broth dilution, 18 hours at 35° C.; for MIC Escherichia coli (ATCC 25922): strain ATCC 25922; for MIC Escherichia coli (GC 4559): strain GC 4559; for MIC Escherichia coli (GC 4560): strain GC 4560
How it was run: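 MIC is the lowest antibiotic concentration (tested 64-0.06 μg/mL) preventing growth of a 5×10^5 CFU/mL inoculum. Determined by broth dilution in Mueller-Hinton II medium following NCCLS standard M7-A2.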

Row | MIC Enterococcus faecalis (ATCC 29212) (Enterococcus sp.) | MIC Enterococcus faecalis (GC 2242) (Enterococcus sp.) | MIC Enterococcus faecium (GC 2243) (Enterococcus sp.) | MIC Enterococcus faecalis (GC 2691) (Enterococcus sp.) | MIC Enterococcus faecalis (GC 3059) (Enterococcus sp.) | MIC Enterococcus faecalis (GC 4552) (Enterococcus sp.) | MIC Enterococcus faecalis (GC 4553) (Enterococcus sp.) | MIC Enterococcus faecalis (GC 4554) (Enterococcus sp.) | MIC Enterococcus faecium (GC 4556) (Enterococcus sp.) | MIC Enterococcus faecium (GC 4557) (Enterococcus sp.) | MIC Enterococcus avium (GC 4558) (Enterococcus sp.) | MIC Enterococcus faecalis (GC 6189) (Enterococcus sp.) | MIC Staphylococcus aureus (ATCC 29213) (Staphylococcus sp.) | MIC Staphylococcus aureus (GC 1131) (Staphylococcus sp.) | MIC Staphylococcus aureus (GC 3051) (Staphylococcus sp.) | MIC Staphylococcus aureus (GC 3053) (Staphylococcus sp.) | MIC Staphylococcus aureus (GC 4541) (Staphylococcus sp.) | MIC Staphylococcus aureus (GC 4542) (Staphylococcus sp.) | MIC Staphylococcus aureus-SMITH (GC 4543) (Staphylococcus sp.) | MIC Staphylococcus aureus (GC 4544) (Staphylococcus sp.) | Compound | other results
1 | >128 µg/mL | >128 µg/mL | >128 µg/mL | >128 µg/mL | >128 µg/mL | >128 µg/mL | 128 µg/mL (≈ 126 µM) | >128 µg/mL | >128 µg/mL | 64 µg/mL (≈ 63.1 µM) | 128 µg/mL (≈ 126 µM) | >128 µg/mL | >128 µg/mL | >128 µg/mL | >128 µg/mL | >128 µg/mL | >128 µg/mL | >128 µg/mL | >128 µg/mL | >128 µg/mL | CC(c1ccccc1)C1NC(=O)CNC(=O)C(CO)NC(=O)C(C(O)C2CNC(=N)N2C2OC(CO)C(O)C(O)C2O)NC(=O)C(C(O)C2CNC(=N)N2)NC(=O)C(Cc2ccc(O)c(NC=O)c2)NC1=O (stereo not drawn) [Example 18, Cyclo[glycyl-β-methylphenylalanyl-3-formamidotyrosyl-3-(2-iminoimidazolidin-4-yl)seryl-3-(3-hexopyranosyl-2-iminoimidazolidin-4-yl)serylseryl]] | MIC Staphylococcus aureus (GC 4545) (Staphylococcus sp.): >128 µg/mL; MIC Staphylococcus haemolyticus (GC 4546) (Staphylococcus sp.): 128 µg/mL (≈ 126 µM); MIC Coagulase Negative Staphylococcus (GC 4547) (Staphylococcus sp.): 128 µg/mL (≈ 126 µM); MIC Coagulase Negative Staphylococcus (GC 4548) (Staphylococcus sp.): 128 µg/mL (≈ 126 µM); MIC Coagulase Negative Staphylococcus (GC 4549) (Staphylococcus sp.): 64 µg/mL (≈ 63.1 µM); MIC Coagulase Negative Staphylococcus (GC 4551) (Staphylococcus sp.): >128 µg/mL; MIC Coagulase Negative Staphylococcus (GC 6257) (Staphylococcus sp.): 128 µg/mL (≈ 126 µM); MIC Streptococcus pneumoniae (ATCC 6301) (Streptococcus sp.): 128 µg/mL (≈ 126 µM); MIC Streptococcus pneumoniae (GC 1894) (Streptococcus sp.): 64 µg/mL (≈ 63.1 µM); MIC Streptococcus pyogenes (GC 4563) (Streptococcus sp.): 128 µg/mL (≈ 126 µM); MIC Streptococcus agalactiae (GC 4564) (Streptococcus sp.): 128 µg/mL (≈ 126 µM); MIC Streptococcus pneumoniae (GC 4565) (Streptococcus sp.): 128 µg/mL (≈ 126 µM); MIC Escherichia coli (ATCC 25922) (Escherichia coli): 64 µg/mL (≈ 63.1 µM); MIC Escherichia coli (GC 4559) (Escherichia coli): 32 µg/mL (≈ 31.6 µM); MIC Escherichia coli (GC 4560) (Escherichia coli): 16 µg/mL (≈ 15.8 µM)
2 | 16 µg/mL (≈ 13.6 µM) | 16 µg/mL (≈ 13.6 µM) | 8 µg/mL (≈ 6.81 µM) | 16 µg/mL (≈ 13.6 µM) | 16 µg/mL (≈ 13.6 µM) | 16 µg/mL (≈ 13.6 µM) | 8 µg/mL (≈ 6.81 µM) | 32 µg/mL (≈ 27.3 µM) | 32 µg/mL (≈ 27.3 µM) | 8 µg/mL (≈ 6.81 µM) | 8 µg/mL (≈ 6.81 µM) | 16 µg/mL (≈ 13.6 µM) | 16 µg/mL (≈ 13.6 µM) | 16 µg/mL (≈ 13.6 µM) | 16 µg/mL (≈ 13.6 µM) | 8 µg/mL (≈ 6.81 µM) | 16 µg/mL (≈ 13.6 µM) | 16 µg/mL (≈ 13.6 µM) | 16 µg/mL (≈ 13.6 µM) | 16 µg/mL (≈ 13.6 µM) | CC(c1ccccc1)C1NC(=O)CNC(=O)C(CO)NC(=O)C(C(O)C2CNC(=N)N2C2OC(CO)C(O)C(O)C2O)NC(=O)C(C(O)C2CNC(=N)N2)NC(=O)C(Cc2ccc3oc(C=C(c4ccccc4)c4ccccc4)nc3c2)NC1=O (stereo not drawn) [Example 39, Cyclo[3-[2-(2,2-diphenylethenyl)-1,3-benzoxazol-5-yl]alanyl-3-(2-iminoimidazolidin-4-yl)seryl-3-(3-hexopyranosyl-2-iminoimidazolidin-4-yl)serylserylglycyl-β-methylphenylalanyl]] | MIC Staphylococcus aureus (GC 4545) (Staphylococcus sp.): 16 µg/mL (≈ 13.6 µM); MIC Staphylococcus haemolyticus (GC 4546) (Staphylococcus sp.): 8 µg/mL (≈ 6.81 µM); MIC Coagulase Negative Staphylococcus (GC 4547) (Staphylococcus sp.): 8 µg/mL (≈ 6.81 µM); MIC Coagulase Negative Staphylococcus (GC 4548) (Staphylococcus sp.): 8 µg/mL (≈ 6.81 µM); MIC Coagulase Negative Staphylococcus (GC 4549) (Staphylococcus sp.): 4 µg/mL (≈ 3.41 µM); MIC Coagulase Negative Staphylococcus (GC 4551) (Staphylococcus sp.): 8 µg/mL (≈ 6.81 µM); MIC Coagulase Negative Staphylococcus (GC 6257) (Staphylococcus sp.): 4 µg/mL (≈ 3.41 µM); MIC Streptococcus pneumoniae (ATCC 6301) (Streptococcus sp.): 8 µg/mL (≈ 6.81 µM); MIC Streptococcus pneumoniae (GC 1894) (Streptococcus sp.): 8 µg/mL (≈ 6.81 µM); MIC Streptococcus pyogenes (GC 4563) (Streptococcus sp.): 4 µg/mL (≈ 3.41 µM); MIC Streptococcus agalactiae (GC 4564) (Streptococcus sp.): 16 µg/mL (≈ 13.6 µM); MIC Streptococcus pneumoniae (GC 4565) (Streptococcus sp.): 16 µg/mL (≈ 13.6 µM); MIC Escherichia coli (ATCC 25922) (Escherichia coli): 128 µg/mL (≈ 109 µM); MIC Escherichia coli (GC 4559) (Escherichia coli): 128 µg/mL (≈ 109 µM); MIC Escherichia coli (GC 4560) (Escherichia coli): 16 µg/mL (≈ 13.6 µM)
